By EC50 is commonly meant the midpoint of the concentration-response curve.

This assay deals with THP-1 viability, CellTiter-Glo luminescence, 72 h. The assay is described as follows: PubChem AID 2252.
For the molecule `CNCCCN1c2ccccc2CCc2ccccc21`, the EC50 was 40.4 µM.

As to `O=C1C2=C(Nc3ccccc3SC2c2ccco2)c2ccccc21` (centres undefined), the EC50 is 23.6 µM.

`CCCCCN=C(N)N/N=C/c1c[nH]c2ccc(OC)cc12`: the EC50 is 2.57 µM.

Regarding `OCCN1CCN(CCCN2c3ccccc3Sc3ccc(C(F)(F)F)cc32)CC1`, the EC50 is 12.7 µM.

Consider `O=C(CN1C2=NCCN2c2ccccc21)c1ccco1`, for which the EC50 is < 0.1 µM.

`Cn1c(N/N=C/c2c[nH]c3ccccc23)nc2ccccc21`: the EC50 was 8.11 µM.

For `CN1CCc2c(sc(NC(=O)c3ccc([N+](=O)[O-])o3)c2C(N)=O)C1`, the EC50 is 0.7 µM.

In the case of `Fc1cccc(Nc2c3c(nc4ccccc24)CCC3)c1`, the EC50 is 26.3 µM.

With `CSc1ccc2c(c1)C(N1CCN(C)CC1)Cc1ccccc1S2` (centres undefined), the EC50 is 9.33 µM.

As for `Clc1cccc(CN2CCc3c([nH]c4ccccc34)C2)c1Cl`, the EC50 was 8.82 µM.

Turning to `O=C(Nc1cccc(C2=NCCN2)c1)Nc1cccc(C2=NCCN2)c1`, the EC50 was 13.2 µM.

Turning to `Oc1ccccc1-c1cc(C(F)(F)C(F)F)[nH]n1`, the EC50 was 46.4 µM.

As for `NC1=NC[C@H](Cc2ccc(O)cc2)N1CCc1cccc2ccccc12`, the EC50 was 32.7 µM.

On to `O=C(Cc1cccs1)N/N=C\c1ccc([N+](=O)[O-])s1`, for which the EC50 is 12.5 µM.

For the molecule `OC(CNCC1CCCO1)Cn1c2ccc(Cl)cc2c2cc(Cl)ccc21` (centres undefined), the EC50 is 12.9 µM.

In the case of `O=C(Nc1c2ccccc2nc2ccccc12)C(Cl)(Cl)Cl`, the EC50 was 20 µM.

Take `O=C(CC1NCCc2ccccc21)Nc1ccc(Oc2ccccc2)cc1` (centres undefined): the EC50 is 14.3 µM.

`CC(=O)NNC(=S)NC(=O)c1ccccc1`: the EC50 was 44.8 µM.

In the case of `COc1ccc(Nc2ccnc3ccccc23)cc1`, the EC50 is 30.7 µM.

Turning to `COc1ccccc1Nc1c2ccccc2nc2ccccc12`, the EC50 was 8.38 µM.

As for `CNC[C@H](CC1CCCCC1)NC[C@H](Cc1ccccc1)NCCC12CC3CC(CC(C3)C1)C2`, the EC50 is 3.49 µM.

As for `Cc1ccc2nc(N(CCCN(C)C)C(=O)c3sc4ccccc4c3Cl)sc2c1`, the EC50 is 28.1 µM.

As to `CCCN(C(=O)CSc1nc2ccccc2n1CC)C1CCS(=O)(=O)C1` (centres undefined), the EC50 is 14.8 µM.

As for `CN(C)CCCN(C(=O)c1ccc2c(c1)CCCC2)c1nc2ccc(Cl)cc2s1`, the EC50 is 9.82 µM.

On to `O=C(NCc1cccnc1)c1ccc(COc2ccc(Cl)cc2)cc1`, for which the half-maximal effective concentration (EC50) is 43.8 µM.

On to `COC(=O)C(C)NC(=S)N1CCN(c2c(F)cc3c(=O)c(C(=O)O)cn(C4CC4)c3c2OC)CC1C` (centres undefined), for which the half-maximal effective concentration (EC50) was 36.9 µM.

As for `Cc1cc(C)c(NC(=O)C[N+](C)(C)CC(O)COc2cccc3ccccc23)c(C)c1` (centres undefined), the EC50 is 12.8 µM.

As for `CCOc1ccc(-c2cc(C)[n+](CCN(CC)CC)c(-c3ccc(OCC)cc3)c2)cc1`, the EC50 is 4.37 µM.

Take `O=C(CCN1CCN(c2ccccc2F)CC1)c1ccc(Br)cc1`: the EC50 is 17 µM.

For the molecule `N=c1c2c(n(Cc3ccc(Cl)cc3Cl)c3c1CCC3)CCCC2`, the EC50 was 3.66 µM.

Consider `Cc1ccccc1-n1ncc2c([N+](=O)[O-])cc([N+](=O)[O-])cc21`, for which the EC50 was 26.6 µM.

With `O=C(Nc1ccc(Cl)cc1)N1CCCN(Cc2ccccc2F)C1`, the EC50 was 45.8 µM.

With `NC[C@@H]1O[C@H](C23CC4CC(CC(C4)C2)C3)Cc2c1ccc(O)c2O`, the EC50 is 3.6 µM.

On to `COc1ccc(Nc2nc(-c3ccccc3)nc3ccccc23)cc1S(=O)(=O)N1CCOCC1`, for which the EC50 was 39 µM.

For `Oc1ccccc1C(Nc1nccs1)c1ccc2cccnc2c1O` (centres undefined), the EC50 is 2.11 µM.

As for `CCOC(=O)c1c(C)[nH]c(C(=O)CN2C(=O)NC(C)(c3ccc4ccccc4c3)C2=O)c1C` (centres undefined), the EC50 is 39.1 µM.

As for `CCOC(=O)c1c(C)sc2c1N(C(C)=O)c1cc(Cl)ccc1S2`, the EC50 was 44.1 µM.

Take `C#CC(=O)N(c1cccc(OC)c1)C(C(=O)NC1CCCC1)c1cccs1` (centres undefined): the EC50 is 0.9 µM.

Take `O=C(NNC(=S)NC(=O)c1ccco1)c1ccc(F)cc1`: the EC50 was 9.47 µM.

On to `C#CCOCCOCCOCCNc1nc(N2CCN(C(=O)CCCCCCCCCCNC(=O)Cn3cc(CCCCCN)nn3)CC2)nc(N2CCN(C(=O)CCCCCCCCCCNC(=O)[C@H]([C@@H](C)CC)n3cc(CCCCCN)nn3)CC2)n1`, for which the EC50 was 14.5 µM.

Turning to `CNCCCCOc1ccc(C(C)(C)C)cc1Cl`, the EC50 is 21.8 µM.

For `COC(=O)c1cc(CSC(=N)N)ccc1OCCC(C)C`, the EC50 is 14.7 µM.

Take `CCn1ncc(/C=N\NC(=O)c2csc3ccccc23)c1C`: the EC50 was 19.1 µM.

For `CC[C@@H](C)[C@H](CNC)NC[C@@H](Cc1cccc2ccccc12)NCCc1cccc(C(F)(F)F)c1`, the EC50 is 5.86 µM.

Regarding `COC(=O)C1=C(C(=O)OC)SC(=C2C(=S)C(C)(C)N(C(=O)C3CC3)c3ccccc32)S1`, the EC50 was 30.9 µM.

`Cc1ccc(Nc2nc(N)c3ccccc3n2)cc1Cl`: the EC50 was 13.7 µM.

With `Cc1cccc(NC(=O)C2CCCN2S(=O)(=O)c2ccc3c(c2)n(C)c(=O)c(=O)n3C)c1` (centres undefined), the EC50 is 11 µM.

As to `CSc1ccc2c(c1)N(CCC1CCCCN1C)c1ccccc1S2` (centres undefined), the 50% effective concentration (EC50) is 13 µM.

Consider `CC1CCC(C(C)C)C(OC(=O)Cn2c(-c3ccc(Cl)cc3)[n+](C)c3ccccc32)C1` (centres undefined), for which the EC50 was 2.22 µM.

For the molecule `c1ccc2c(c1)CCc1ccccc1C2=C1CCNCC1`, the EC50 is 25.2 µM.

Turning to `NC(=O)c1ccsc1NC(=O)c1ccc2c(c1)CCCC2`, the EC50 was 40.4 µM.

On to `Cc1nnc(N/N=C/c2ccccn2)[nH]c1=O`, for which the EC50 is 1.62 µM.

Regarding `COc1ccccc1Nc1nc(NCc2ccco2)c2ccccc2n1`, the EC50 is 13.3 µM.

As to `O=C(/C=C/c1ccco1)NC(=S)NNC(=O)c1ccco1`, the EC50 was 32.3 µM.

As to `Fc1ccc([C@@H]2CCNC[C@H]2COc2ccc3c(c2)OCO3)cc1`, the EC50 is 7.59 µM.

Take `CN1CCN(C2Cc3cc(Cl)ccc3Sc3cc(F)ccc32)CC1` (centres undefined): the EC50 was 8.2 µM.

As to `O=C(NNC(=S)NC(=O)c1ccccc1)c1ccc(O)cc1`, the EC50 is 14.3 µM.

With `N=c1n(Cc2ccc(Cl)cc2)c2ccccc2n1CC(O)COc1ccccc1` (centres undefined), the EC50 is 5.39 µM.

Regarding `N=c1c2c(n(Cc3cccc(Cl)c3)c3c1CCC3)CCCC2`, the EC50 was 13.5 µM.

Turning to `CC(C)(C)c1ccc(OCCCNC2CCCC2)cc1`, the EC50 is 19.9 µM.

With `Cc1cc(Cl)c(OCCCNCc2ccccc2)c(Br)c1`, the EC50 was 21.4 µM.

Take `CCC[C@H](CN[C@@H](CNC)[C@H](C)CC)NCCc1cc(C(F)(F)F)cc(C(F)(F)F)c1`: the EC50 was 4.07 µM.

Take `CC(C(=O)NC1C=CS(=O)(=O)C1)N1C(=O)/C(=C/c2ccc(Cl)cc2)SC1=S` (centres undefined): the EC50 was 25.7 µM.

Take `OCCCNc1c2ccccc2nc2ccccc12`: the EC50 was 2.13 µM.

Turning to `O=C(N/N=C\c1cccc([N+](=O)[O-])c1O)C1COc2ccccc2O1` (centres undefined), the EC50 is 25.4 µM.

In the case of `Oc1ccc(C[C@H]2CNCCN2CCCCC2CCCCC2)cc1`, the EC50 was 8.99 µM.

`C/C(=N\NC(=O)c1ccc(Cl)cc1)c1ccccn1`: the EC50 is 0.97 µM.

Regarding `CN(C)CCCNc1cc(C(C)(C)C)nc2c(-c3ccc(Cl)cc3)cnn12`, the EC50 was 7.99 µM.

For the molecule `CCCCCCCCCC[N+](C)(C)CC/C=C1/c2ccccc2Sc2ccc(Cl)cc21`, the EC50 is 1.99 µM.

Take `Nc1nc(=S)c2[nH]cnc2[nH]1`: the 50% effective concentration (EC50) is 0.32 µM.

Regarding `CC(=O)NCc1ccc(C(=O)CCl)cc1`, the EC50 was 33.3 µM.

Take `O=C(N/N=C/c1cc(O)ccc1Br)c1cccnc1`: the EC50 is 2.86 µM.

For the molecule `CC1CC(C)CN(CCOc2ccc(Cl)cc2Cl)C1` (centres undefined), the EC50 was 29.4 µM.

Turning to `COc1ccc(C(=O)N/N=C/c2sc3ccccc3c2O)cc1`, the EC50 was 3.36 µM.

`O=C1C=CC(=O)N1CCCCCCN1C(=O)C=CC1=O`: the EC50 was 3.29 µM.

Regarding `CO[C@H]1C=CO[C@@]2(C)Oc3c(C)c(O)c4c(O)c(c(C=NN5CCN(C)CC5)c(O)c4c3C2=O)NC(=O)C(C)=CC=C[C@H](C)[C@H](O)[C@@H](C)[C@@H](O)[C@@H](C)[C@H](OC(C)=O)[C@@H]1C`, the EC50 is 42.4 µM.

As for `CN1C(=O)/C(=C/c2cccc(Cl)c2)Sc2ccc(C(=O)N3CCCC3)cc21`, the EC50 was 21.1 µM.

Turning to `Cc1ccc(CNCCC2=CCCCC2)cc1`, the EC50 is 26.7 µM.

Consider `O=C(NCCCNc1ccnc2cc(Cl)ccc12)c1ccccc1F`, for which the EC50 is 21.2 µM.

Take `C/C(=N\N=C(N)N)c1ccc(Cl)c(Cl)c1`: the EC50 is 13.3 µM.

On to `CCn1cc(C(=O)NCc2ccc3c(c2)OCO3)c(=O)c2cc(F)c(N3CCN(C(=O)c4ccco4)CC3)cc21`, for which the EC50 was 19.9 µM.

With `Clc1ccc(C(c2ccc(Cl)cc2)n2cc[n+](CC(OCc3ccc(Cl)cc3Cl)c3ccc(Cl)cc3Cl)c2)cc1` (centres undefined), the EC50 was 1.45 µM.

For the molecule `Cc1ccc2nc(/C(C#N)=C\c3ccc([N+](=O)[O-])o3)[nH]c2c1`, the EC50 was 1.25 µM.

For `Cc1ccc(-c2c[n+](Cc3ccc(Cl)cc3)c3n2CCC3)cc1`, the EC50 is 10.1 µM.

`Cc1cc(C(C)(C)CC(C)(C)C)ccc1OCCOCC[N+](C)(C)Cc1ccccc1`: the EC50 is 1.18 µM.

Regarding `CN1CCN(c2nc3cc(C(F)(F)F)ccc3n3cccc23)CC1`, the EC50 was 42.3 µM.

With `Cc1ccc(C(=O)N/C(=C\c2ccc(-c3ccc(Cl)cc3)o2)C(=O)NCCCN(C)C)cc1`, the EC50 is 5.31 µM.

`COC(=O)CC1C(=O)NCCN1C(=O)CSc1nc2ccc([N+](=O)[O-])cc2s1` (centres undefined): the EC50 was < 0.1 µM.

Regarding `OCCNCc1cc(Br)ccc1OCc1ccc(Cl)cc1`, the EC50 is 15.9 µM.

Regarding `CN(C)CC/C=C1\c2ccccc2Sc2ccc(Cl)cc21`, the EC50 was 17 µM.

In the case of `Cc1ccc(C(=O)NNC(=S)NC(=O)COc2ccccc2)cc1`, the EC50 is 15.1 µM.

As to `Cc1ccc(-c2nc(C(=O)NCCCN(C)C)cc3c2[nH]c2ccccc23)cc1`, the EC50 is 10.7 µM.

`NC(N)=N/N=C/c1ccc(OCc2ccc(Cl)cc2Cl)cc1`: the EC50 was 5.86 µM.

In the case of `CCOC(=O)Cn1c(=N)n(CCOc2ccc3ccccc3c2)c2ccccc21`, the EC50 was 17.7 µM.

Regarding `Cc1ccc(NC(=O)c2ccc([N+](=O)[O-])o2)c(C)c1`, the EC50 was 12.1 µM.

In the case of `CC(NCc1ccccc1O)C12CC3CC(CC(C3)C1)C2` (centres undefined), the EC50 is 41.6 µM.

In the case of `CC(=O)Nc1ccc(NC(=O)CSc2ccc(-c3ccco3)nn2)cc1`, the EC50 was < 0.1 µM.

Turning to `COc1ccc(NC(=O)CC2Sc3ncnn3C2=O)cc1` (centres undefined), the EC50 is 46.5 µM.

With `CCN(CCC(=O)Nc1ccc(Br)c(C)c1)Cc1ccccc1`, the 50% effective concentration (EC50) is 13.8 µM.

Source of the values: PubChem BioAssay AID2252 (Southern Research Specialized Biocontainment Screening …, 2010).
